Experiment: Cycle 1 normal organ dosimetry (SPECT/CT, TIACs, OLINDA 2.2.3)
Type: in vivo, human
Conditions: for Absorbed Dose, Mean / Absorbed Dose, max / Absorbed Dose, median / Absorbed Dose, min: Cycle 1, n = 26; for Absorbed Dose in Cycle 1, Mean / Absorbed Dose in Cycle 1, max / Absorbed Dose in Cycle 1, min: N = 16 patients imaged at cycle 1 and 3
Procedure: This Example presents the biodistribution, dosimetry, and pharmacokinetics (PK) results of a PK/Dosimetry sub-study performed as part of a Phase III trial. Twenty-seven (27) patients were administered a target activity of 7.4±10% GBq of ^177Lu-PSMA-I&T and underwent single photon emission computed tomography (SPECT)/computed tomography (CT) imaging at four timepoints (4 h, 24 h, 48 h, and 168 h). Image data was analysed to compute time-activity curves (TACs) and subsequently time-integrated activity coefficients (TIACs) in each organ of interest and in organs showing appreciable and meaningful ^177Lu-PSMA-I&T activity. Organ Level Internal Dose Assessment (OLINDA 2.2.3) was used to compute organ and whole body absorbed radiation doses for each patient.
All participating sites underwent a rigorous site setup process during which all dose calibrators, scanners, and gamma counters used in the sub-study were calibrated. Sites were allowed to enroll patients in the sub-study only after the completion and approval of all site setup processes by Invicro. Patients underwent SPECT/CT imaging, with anatomical coverage typically extending from the salivary glands to the pelvis, following the administration of a targeted 7.4±10% GBq of ^177Lu-PSMA-I&T at cycle 1. SPECT/CT imaging was performed at four timepoints: 4 h, 24 h, 48 h, and 168 h post-injection. Additionally, a subset of patients imaged at Cycle 1 (16 out of 27), were also imaged at Cycle 3 (Table 2).
In general, raw projection data was acquired into a 128×128 matrix with medium energy general purpose (MEGP) collimation using a step and shoot acquisition mode, acquiring 60 projections per detector (180 degrees rotation per detector), 20 seconds per projection, with an acquisition zoom of 1.0, and a 20% (±10%) energy window centered over 208 keV.
A low-dose CT scan was performed prior to beginning the SPECT scan for attenuation correction. Sites were instructed to use the Institutional standard parameters for acquisition of the low-dose CT. Institutional standard reconstruction parameters were used. Scatter correction was required to be applied using a 20% (±10%) scatter window centered over 170 keV.
The imaging data was analyzed using Invicro's VivoQuant software, a validated software used in a 21 CFR § 11-compliant workflow. The general quantification approach was based on the principles detailed in the Medical Internal Radiation Dose (MIRD) Pamphlet No. 16, No 23, and No 26 as appropriate.
SPECT images were calibrated in units of Becquerel (Bq) using a calibration factor derived from a source of known activity, measured during site set up with the same acquisition and reconstruction parameters employed for patient imaging. A patient-specific calibration factor was also derived at each clinical time point after acquisition of the patient SPECT/CT. As a quality control measure, if the patient-specific calibration factor differed by more than 10% from the site set up calibration factor, an investigation was conducted.
Volume of interest (VOI) (kidneys, bladder, liver, lumbar vertebrae L2-L4, lacrimal glands, salivary glands [parotid and submandibular glands], and whole body) were delineated on each dataset by a trained image analyst. […] Organs were segmented either by drawing the entire contour of the organ, or by placing a sphere in a representative region of the organ and then multiplying by the organ's effective mass (based on patient's height and weight). Segmentation methods for each organ are specified in Table 3 and were consistently applied to each patient.
Clearance of the radiopharmaceutical was derived from a data-appropriate fit of each organ's TAC. Depending on the TAC's shape, the data was fitted with the sum of one, two, or three exponentials, or using a rise and fall model. Fitting was performed with in-house Python software. TIACs were calculated through analytical integration of the curve fit extrapolated to infinity. […]

[1] = Lacrimal Glands (OLINDA sphere model)
[2] = cycle 1, target 7.4±10% GBq, mean±SD, patient 42-030 excluded

O=C(O)CC[C@H](NC(=O)N[C@@H](CCCCNC(=O)CCCCCCC(=O)NCCCC[C@@H](NC(=O)[C@@H](Cc1ccccc1)NC(=O)[C@@H](Cc1ccc(O)c(I)c1)NC(=O)CC[C@H](C(=O)O)N1CCN(CC(=O)O)CCN(CC(=O)O)CCN(CC(=O)O)CC1)C(=O)O)C(=O)O)C(=O)O [^177Lu-PSMA-I&T, (3S,7 S,26R,29R,32R,37R)-29-benzyl-32-(4-hydroxy-3-iodobenzyl)-5,13,20,28,31,34-hexaoxo-37-(4,7,10-tris(carboxymethyl)-1,4,7,10-tetraazacyclododecan-1-yl)-4,6,12,21,27,30,33-heptaazaheptatriacontane-1,3,7,26,37-pentacarboxylic acid; lutetium-177 (III), metal not drawn]
0.01 Gy/GBq: Absorbed Dose, min (Adrenals) | Absorbed Dose in Cycle 1, min (Adrenals) | Absorbed Dose, Mean (Brain) | Absorbed Dose, median (Brain) | Absorbed Dose in Cycle 1, Mean (Brain) | Absorbed Dose, median (Esophagus) | Absorbed Dose in Cycle 1, Mean (Esophagus) | Absorbed Dose, Mean (Eyes) | Absorbed Dose, median (Eyes) | Absorbed Dose in Cycle 1, Mean (Eyes) | Absorbed Dose, median (Gallbladder wall) | Absorbed Dose, median (Heart wall) | Absorbed Dose in Cycle 1, Mean (Heart wall) | Absorbed Dose, min (Left colon) | Absorbed Dose in Cycle 1, min (Left colon) | Absorbed Dose, min (Liver) | Absorbed Dose in Cycle 1, min (Liver) | Absorbed Dose, Mean (Lungs) | Absorbed Dose, median (Lungs) | Absorbed Dose in Cycle 1, Mean (Lungs) | Absorbed Dose, median (Pancreas) | Absorbed Dose, median (Prostate) | Absorbed Dose, min (Prostate) | Absorbed Dose in Cycle 1, min (Prostate) | Absorbed Dose, min (Rectum) | Absorbed Dose in Cycle 1, min (Rectum) | Absorbed Dose, min (Right Colon) | Absorbed Dose in Cycle 1, min (Right Colon) | Absorbed Dose, min (Small intestine) | Absorbed Dose in Cycle 1, min (Small intestine) | Absorbed Dose, min (Spleen) | Absorbed Dose in Cycle 1, min (Spleen) | Absorbed Dose, median (Stomach Wall) | Absorbed Dose, Mean (Testes) | Absorbed Dose, median (Testes) | Absorbed Dose in Cycle 1, Mean (Testes) | Absorbed Dose, Mean (Thymus) | Absorbed Dose, median (Thymus) | Absorbed Dose in Cycle 1, Mean (Thymus) | Absorbed Dose, Mean (Thyroid) | Absorbed Dose, median (Thyroid) | Absorbed Dose in Cycle 1, Mean (Thyroid) | Absorbed Dose, min (Total Body) | Absorbed Dose in Cycle 1, min (Total Body)
0.82 Gy/GBq: Absorbed Dose, max (Right Colon) | Absorbed Dose in Cycle 1, max (Right Colon)
0.41±0.15 Gy/GBq: absorbed radiation dose per gram of tissue, kidneys [2]
1.53 Gy/GBq: Absorbed Dose, max (Left colon) | Absorbed Dose in Cycle 1, max (Left colon)
0.19 Gy/GBq: Absorbed Dose in Cycle 1, max (Osteogenic cells) | Absorbed Dose, Mean (Salivary Glands)
0.09 Gy/GBq: Absorbed Dose, max (Total Body) | Absorbed Dose in Cycle 1, max (Total Body)
0.02 Gy/GBq: Absorbed Dose, Mean (Adrenals) | Absorbed Dose, median (Adrenals) | Absorbed Dose in Cycle 1, Mean (Adrenals) | Absorbed Dose, Mean (Esophagus) | Absorbed Dose, Mean (Gallbladder wall) | Absorbed Dose in Cycle 1, Mean (Gallbladder wall) | Absorbed Dose, Mean (Heart wall) | Absorbed Dose, median (Osteogenic cells) | Absorbed Dose, Mean (Pancreas) | Absorbed Dose in Cycle 1, Mean (Pancreas) | Absorbed Dose, Mean (Prostate) | Absorbed Dose in Cycle 1, Mean (Prostate) | Absorbed Dose, median (Spleen) | Absorbed Dose, Mean (Stomach Wall) | Absorbed Dose in Cycle 1, Mean (Stomach Wall) | Absorbed Dose, Mean (Total Body) | Absorbed Dose, median (Total Body) | Absorbed Dose in Cycle 1, Mean (Total Body)
0.80 Gy/GBq: Absorbed Dose, max (Salivary Glands) | Absorbed Dose in Cycle 1, max (Salivary Glands)
0.25 Gy/GBq: Absorbed Dose, Mean (Right Colon)
0.49 Gy/GBq: Absorbed Dose, max (Red Marrow)
0.37 Gy/GBq: Absorbed Dose, median (Kidneys)
0.44±0.30 Gy/GBq: absorbed radiation dose per gram of tissue, rectum [2]
0.17 Gy/GBq: Absorbed Dose, min (Kidneys) | Absorbed Dose in Cycle 1, min (Kidneys) | Absorbed Dose in Cycle 1, Mean (Salivary Glands)
0.50 Gy/GBq: Absorbed Dose in Cycle 1, Mean (Rectum) | Absorbed Dose, max (Urinary Bladder wall)
0.29 Gy/GBq: Absorbed Dose, max (Osteogenic cells)
0.05 Gy/GBq: Absorbed Dose, Mean (Osteogenic cells) | Absorbed Dose in Cycle 1, Mean (Red Marrow) | Absorbed Dose, Mean (Small intestine)
0.00 Gy/GBq: Absorbed Dose, min (Brain) | Absorbed Dose in Cycle 1, min (Brain) | Absorbed Dose, min (Esophagus) | Absorbed Dose in Cycle 1, min (Esophagus) | Absorbed Dose, min (Eyes) | Absorbed Dose in Cycle 1, min (Eyes) | Absorbed Dose, min (Gallbladder wall) | Absorbed Dose in Cycle 1, min (Gallbladder wall) | Absorbed Dose, min (Heart wall) | Absorbed Dose in Cycle 1, min (Heart wall) | Absorbed Dose, min (Lungs) | Absorbed Dose in Cycle 1, min (Lungs) | Absorbed Dose, min (Osteogenic cells) | Absorbed Dose in Cycle 1, min (Osteogenic cells) | Absorbed Dose, min (Pancreas) | Absorbed Dose in Cycle 1, min (Pancreas) | Absorbed Dose, min (Red Marrow) | Absorbed Dose in Cycle 1, min (Red Marrow) | Absorbed Dose, min (Stomach Wall) | Absorbed Dose in Cycle 1, min (Stomach Wall) | Absorbed Dose, min (Testes) | Absorbed Dose in Cycle 1, min (Testes) | Absorbed Dose, min (Thymus) | Absorbed Dose in Cycle 1, min (Thymus) | Absorbed Dose, min (Thyroid) | Absorbed Dose in Cycle 1, min (Thyroid)
0.22 Gy/GBq: Absorbed Dose, median (Right Colon)
0.07 Gy/GBq: Absorbed Dose, max (Brain) | Absorbed Dose in Cycle 1, max (Brain) | Absorbed Dose, max (Esophagus) | Absorbed Dose in Cycle 1, max (Esophagus) | Absorbed Dose, max (Eyes) | Absorbed Dose in Cycle 1, max (Eyes) | Absorbed Dose, max (Gallbladder wall) | Absorbed Dose in Cycle 1, max (Gallbladder wall) | Absorbed Dose, max (Heart wall) | Absorbed Dose in Cycle 1, max (Heart wall) | Absorbed Dose, max (Lungs) | Absorbed Dose in Cycle 1, max (Lungs) | Absorbed Dose, max (Pancreas) | Absorbed Dose in Cycle 1, max (Pancreas) | Absorbed Dose, max (Prostate) | Absorbed Dose in Cycle 1, max (Prostate) | Absorbed Dose, max (Stomach Wall) | Absorbed Dose in Cycle 1, max (Stomach Wall) | Absorbed Dose, max (Testes) | Absorbed Dose in Cycle 1, max (Testes) | Absorbed Dose, max (Thymus) | Absorbed Dose in Cycle 1, max (Thymus) | Absorbed Dose, max (Thyroid) | Absorbed Dose in Cycle 1, max (Thyroid)
0.33 Gy/GBq: Absorbed Dose, min (Urinary Bladder wall) | Absorbed Dose in Cycle 1, min (Urinary Bladder wall)
0.11 Gy/GBq: Absorbed Dose, max (Spleen) | Absorbed Dose in Cycle 1, max (Spleen)
0.15 Gy/GBq: Absorbed Dose, median (Salivary Glands) | Absorbed Dose, max (Small intestine) | Absorbed Dose in Cycle 1, max (Small intestine)
0.40 Gy/GBq: Absorbed Dose, Mean (Lacrimal Glands) | Absorbed Dose in Cycle 1, Mean (Urinary Bladder wall)
0.08±0.12 Gy/GBq: mean red marrow (bone marrow) absorbed radiation dose (cycle 1, image-based method (L2-L4), mean±SD, patient 42-030 excluded)
0.40±0.36 Gy/GBq: absorbed radiation dose per gram of tissue, lacrimal glands [2]
0.03 Gy/GBq: Absorbed Dose, median (Liver) | Absorbed Dose, median (Red Marrow) | Absorbed Dose, min (Salivary Glands) | Absorbed Dose in Cycle 1, min (Salivary Glands) | Absorbed Dose, Mean (Spleen) | Absorbed Dose in Cycle 1, Mean (Spleen)
0.47±0.31 Gy/GBq: absorbed radiation dose per gram of tissue, left colon [2]
0.41±0.05 Gy/GBq: absorbed radiation dose per gram of tissue, urinary bladder [2]
0.10 Gy/GBq: Absorbed Dose, max (Liver) | Absorbed Dose in Cycle 1, max (Liver)
1.19 Gy/GBq: Absorbed Dose in Cycle 1, max [1] | Absorbed Dose, max (Lacrimal Glands)
0.08 Gy/GBq: Absorbed Dose, max (Adrenals) | Absorbed Dose in Cycle 1, max (Adrenals) | Absorbed Dose, Mean (Red Marrow)
0.52 Gy/GBq: Absorbed Dose in Cycle 1, Mean (Left colon)
0.06 Gy/GBq: Absorbed Dose in Cycle 1, Mean (Small intestine)
0.41 Gy/GBq: Absorbed Dose, Mean (Kidneys) | Absorbed Dose in Cycle 1, Mean (Kidneys) | Absorbed Dose, median (Left colon) | Absorbed Dose, Mean (Urinary Bladder wall) | Absorbed Dose, median (Urinary Bladder wall)
0.39 Gy/GBq: Absorbed Dose in Cycle 1, Mean [1] | Absorbed Dose, median (Rectum)
1.46 Gy/GBq: Absorbed Dose, max (Rectum) | Absorbed Dose in Cycle 1, max (Rectum)
0.44 Gy/GBq: Absorbed Dose, Mean (Rectum)
0.47 Gy/GBq: Absorbed Dose, Mean (Left colon) | Absorbed Dose in Cycle 1, max (Urinary Bladder wall)
0.04 Gy/GBq: Absorbed Dose in Cycle 1, min [1] | Absorbed Dose, min (Lacrimal Glands) | Absorbed Dose, Mean (Liver) | Absorbed Dose in Cycle 1, Mean (Liver) | Absorbed Dose in Cycle 1, Mean (Osteogenic cells) | Absorbed Dose, median (Small intestine)
0.19±0.16 Gy/GBq: absorbed radiation dose per gram of tissue, salivary glands (cycle 1, target 7.4±10% GBq, mean±SD, patients 42-030 and 12-004 excluded)
0.28 Gy/GBq: Absorbed Dose in Cycle 1, max (Red Marrow) | Absorbed Dose in Cycle 1, Mean (Right Colon)
0.02±0.02 Gy/GBq: mean red marrow absorbed dose, remaining 20 patients (cycle 1, excluding six patients with unusually high marrow doses and the patient with a superscan)
0.26 Gy/GBq: Absorbed Dose, median (Lacrimal Glands)
0.81 Gy/GBq: Absorbed Dose, max (Kidneys) | Absorbed Dose in Cycle 1, max (Kidneys)

— US20250262336A1, “[177LU] LUTETIUM-PSMA I&T COMPOSITION AND DOSIMETRY, KIT, METHOD OF MAKING, AND METHOD OF USING THEREOF” (Curium US LLC, priority 2023, published 2025)
